Measured values published in US20230000773A1, “NOVEL HEADGROUP LIPID COMPOUNDS AND COMPOSITIONS FOR INTRACELLULAR DELIVERY OF THERAPEUTIC AGENTS” (ModernaTX, Inc., priority 2019, published 2023).

How the values were obtained:
[1] = Size and polydispersity index of nanoparticles comprising compounds of the disclosure; type: physicochemical; conditions: compound:DSPC:cholesterol:PEG 2 50:10:38:2 mol %
Summary of the method: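 LNPs contained test lipid:DSPC:cholesterol:PEG 2 at 50:10:38:2 mol %. Size and polydispersity index were measured by dynamic light scattering.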

[2] = Encapsulation efficiency (% EE), ribogreen; type: physicochemical; conditions: nanoparticles, compound:DSPC:cholesterol:PEG 2 50:10:38:2 mol %
Summary of the method: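 Encapsulated RNA fraction determined by fluorescence of free RNA before and after LNP disruption with detergent or solvent. LNPs contained ionizable lipid:DSPC:cholesterol:PEG lipid at 50:10:38:2 mol %.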

[3] = Encapsulation efficiency (% EE), ribostar; type: physicochemical; conditions: nanoparticles, compound:DSPC:cholesterol:PEG 2 50:10:38:2 mol %
Source text: The efficiency of encapsulation of a therapeutic and/or prophylactic describes the amount of therapeutic and/or prophylactic that is encapsulated or otherwise associated with a lipid nanoparticle (e.g., an empty LNP or a loaded LNP) after preparation, relative to the initial amount provided. The encapsulation efficiency is desirably high (e.g., close to 100%). The encapsulation efficiency may be measured, for example, by comparing the amount of therapeutic and/or prophylactic in a solution containing the lipid nanoparticle (e.g., an empty LNP or a loaded LNP) before and after breaking up the lipid nanoparticle (e.g., an empty LNP or a loaded LNP) with one or more organic solvents or detergents. Fluorescence may be used to measure the amount of free therapeutic and/or prophylactic (e.g., RNA) in a solution. For the lipid nanoparticles (e.g., empty LNPs or loaded LNPs) described herein, the encapsulation efficiency of a therapeutic and/or prophylactic may be at least 50%, for example 50%, 55%, 60%, 65%, 70%, 75%, 80%, 85%, 90%, 91%, 92%, 93%, 94%, 95%, 96%, 97%, 98%, 99%, or 100%. In some embodiments, the encapsulation efficiency may be at least 80%. In certain embodiments, the encapsulation efficiency may be at least 90%. In some embodiments, the encapsulation efficiency of the therapeutic and/or prophylactic agent is between 80% and 100%.
Nanoparticle compositions including a therapeutic and/or prophylactic can be optimized according to the selection of a compound according to Formula (I), (I-1), (A), (A-1), (A-1a), or (A-1b), the selection of additional lipids, the amount of each lipid in the lipid component, and the wt:wt ratio of the lipid component to the therapeutic and/or prophylactic. Nanoparticle compositions including DSPC as a phospholipid, cholesterol as a structural lipid, PEG 2 as a PEG lipid, and a compound according to Formula (I), (I-1), (A), (A-1), (A-1a), or (A-1b) were prepared. The ratios of the lipids were 50:10:38:2 mol % for the lipid according to Formula (I), (I-1), (A), (A-1), (A-1a), or (A-1b):DSPC:cholesterol:PEG 2. Tables 2a, 2b, and 3-5 summarize the characteristics of the formulations.
Table 4 summarizes the surface hydrophobicity of nanoparticles comprising compounds of the disclosure as determined by Generalized Polarization by Laurdan (GPL). Laurdan, a fluorescent aminonaphthalene ketone lipid, was post-inserted into the nanoparticle surface and the fluorescence spectrum of Laurdan was collected to determine the normalized Generalized Polarization (N-GP). Higher N-GP indicates a less polar surface.

[4] = Apparent LNP pKa by 2-(p-toluidino)-6-napthalene sulfonic acid (TNS) assay; type: physicochemical; conditions: pH at half of maximum fluorescence
[5] = Surface hydrophobicity by Generalized Polarization by Laurdan (GPL); type: physicochemical; conditions: normalized Generalized Polarization by Laurdan; higher N-GP = less polar surface
Summary of the method: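 LNPs contained ionizable lipid:DSPC:cholesterol:PEG lipid at 50:10:38:2 mol %. Laurdan was post-inserted into the particle surface, and its fluorescence spectrum gave normalized generalized polarization (N-GP); higher N-GP means a less polar surface.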

[6] = Heparin-sepharose binding of nanoparticles
hEPO mRNA = test: hEPO expression in CD1-mice after intravenous administration of nanoparticles; type: in vivo; conditions: 6 h after intravenous administration, mRNA dose 0.5 mg/kg, N:P 3.4, compound:DSPC:cholesterol:PEG 2 50:10:38:2
Protocol: The expression of hEPO mRNA in CD1-mice was measured 6 h after intravenous administration of nanoparticles comprising a compound of the disclosure, DSPC, cholesterol, and PEG 2 in a ratio of 50:10:38:2. […] Each composition was dosed to 8 animals at an mRNA dose of 0.5 mg/kg.

serum protein ApoE = test: ApoE binding affinity of nanoparticles (bead binding, flow cytometry)
Protocol: The ApoE binding affinity, i.e., the affinity of binding between nanoparticles comprising compounds of the disclosure and the serum protein ApoE, was determined by binding the nanoparticles to beads, then incubating them with known quantities of […]. The quantity of protein bound to the nanoparticle was then determined by flow cytometry.

mRNA = mRNA integrity in nanoparticles by RP-IP HPLC (UV 260 nm); type: physicochemical
Protocol: Integrity of mRNA comprised in nanoparticles of the disclosure, i.e., the percentages of intact mRNA, mRNA adducts, and mRNA hydrolysis products, […] (Reverse-Phase Ion-Pairing HPLC) using UV detection at 260 nm. Total purity and impurities are calculated as percent peak area.

[7] = mRNA integrity after 2 weeks at 25° C., percent peak area
[8] = mRNA integrity at t = 0, percent peak area

Row | Compound | PDI [1] | Size (nm) [1] [nm] | % EE (ribogreen) [2] [%] | % EE (ribostar) [3] [%] | LogIC50 (pKa) [4] | Average N-GP [5] | Relative % Area Bound by LNP [6] [%] | Avg. [hEPO] mIU/mL (hEPO mRNA) [mIU/mL] | Median Fluorescence Intensity, PE (serum protein ApoE) | Adduct (mRNA; [7]) [%] | Hydrolysis Product (mRNA; [7]) [%] | Intact (mRNA; [7]) [%] | Adduct (mRNA; [8]) [%] | Hydrolysis Product (mRNA; [8]) [%] | Intact (mRNA; [8]) [%]
1 | CCCCCCCCC(CC)OC(=O)CCCCCCCN(CCCCCCCC(=O)OC(CCCCCCCC)CCCCCCCC)CCCNC1=C(C(N)=O)C(=O)OC1 (stereo not drawn) [Compound 72, Heptadecan-9-yl 8-((3-((4-carbamoyl-5-oxo-2,5-dihydrofuran-3-yl)amino)propyl)(8-oxo-8-(undecan-3-yloxy)octyl)amino)octanoate] | 0.090 | 76.7 | 91.2 | 78.6 | 6.39 | 0.988 | 0 | 7.36E+05 | 78901 | 24.9 | 23.5 | 51.6 | 5.6 | 16.8 | 77.7
2 | CCCCCCCCC(CC)OC(=O)CCCCCCCN(CCCCCCCC(=O)OC(CCCCCCCC)CCCCCCCC)CCCNS(=O)(=O)C[C@H]1COCCO1 (stereo partly drawn) [Compound 70, Heptadecan-9-yl 8-((3-((((R)-1,4-dioxan-2-yl)methyl)sulfonamido)propyl)(8-oxo-8-(undecan-3-yloxy)octyl)amino)octanoate] | 0.123 | 72.6 | 89.9 | 60.7 | 6.75 | 0.902 | 0 | 9.18E+05 | 121247 | 12.7 | 50.1 | 37.2 | 10.3 | 40.2 | 49.5
3 | CCCCCCCCC(CC)OC(=O)CCCCCCCN(CCCCCCCC(=O)OC(CCCCCCCC)CCCCCCCC)CCCNS(=O)(=O)C1CC1 (stereo not drawn) [Compound 67, Heptadecan-9-yl 8-((3-(cyclopropanesulfonamido)propyl)(8-oxo-8-(undecan-3-yloxy)octyl)amino)octanoate] | 0.123 | 71.7 | 84.1 | 48.5 | 6.67 | 0.890 | 6.69 | 1.43E+06 | 146715 | 26.3 | 39.0 | 34.7 | 10.1 | 32.8 | 57.1
